Measured values: patent publication US7479374B2, “Triacylglycerol-deficient fission yeast and its uses” (priority 2003, dated 2009)
Residues, ends and D or L forms follow the SMILES beside them. *: point of attachment. Cbz = O=C(OCc1ccccc1)*; CH2F = FC*

What was measured:
Type in all cases: cell-based, Schizosaccharomyces pombe
[1] = tested on: WT and DKO S. pombe cells; experiment: DHS, PHS or C2-ceramide treatment: viability and DNA fragmentation; settings: various concentrations, 0-3 hours
Description: (§1) Cell viability assay: For cell viability at different growth phases, cells were grown to various densities in YES (determined by OD595). The number of viable cells was obtained after cells were diluted properly in distilled water and plated in triplicates on YES agar. Colonies were scored after 3 days of incubation at 30° C. For cell viability after various treatments, cells were grown to early log phase (OD595=0.1) before lipids or other chemicals were added. After treatment, cells were collected and viability was analyzed as described above.
(§2) DAG, fatty acid and ceramide treatment: For fatty acid treatment, palmitic acid and oleic acid were dissolved in chloroform as 500 mM stock. Each microliter of fatty acids was dissolved in 12.5 μl tyloxapol-enthanol (1:1) and added into growth medium. Wild type and DKO strains were grown to early log phase and then incubated in medium containing different concentrations (0.5 mM, 0.8 mM and 1 mM) of palmitic acid or oleic acid for 0-3 hours. Control groups were cultured in the medium added with the same volume of tyloxapol-enthanol without fatty acids. After incubation, cells were analyzed for viability and DNA fragmentation. DiC8 DAG and ceramide were dissolved in DMSO. The working concentrations for DAG was 0.1 mM, 0.2 mM or 0.3 mM, while for ceramide was 10 μM or 20 μM (23, 24).
(§3) 4′,6-diamidino-2-phenylindole (DAPI) staining: Cells were fixed with 3.7% formaldehyde for 10 minutes, washed once with PBS containing 4% NP40 and twice with PBS, and then stained with DAPI. Cells were viewed using a Leica DMLB microscope.
(§4) Terminal deoxynucleotidyl transferase(TdT)-mediated dUTP nick-end labeling (TUNEL): Cells were fixed with 3.7% formaldehyde for 1 hr, digested with zymolase, washed with PBS, incubated in a permeabilization solution (0.1% Triton in 0.1% sodium citrate) for 2 minutes on ice, washed twice with PBS and incubated with 50 μl TUNEL mixtures for 1 hour at 37° C. Cells were washed with PBS twice and were viewed using a Leica DMLB microscope.

[2] = tested on: DKO strain (S. pombe Δplh1 Δdga1 double deletion); experiment: Detection of apoptotic markers: DAPI staining and TUNEL (DNA fragmentation); settings: for apoptosis induced by fatty acid: DKO cells, early log phase, two hours (FIGS. 14-16); for cells undergoing apoptosis in the presence of the inhibitor / rescue of palmitate-induced apoptosis: double deletion cells treated with 0.8 mM of palmitate
Description: as §2
Detection of apoptotic markers: All assays in this section were performed as previously described (26).
as §3, §4

DKO cells [3] = experiment: Diacylglycerol kinase assay of cellular DAG level
Description: (§5) Diacylglycerol kinase assay: The assay was conducted as described in the Biotrak assay reagents system (Amersham Biosciences). Wild type and DKO yeast cells were grown in YES medium to mid log phase and then treated with medium containing 0.8 mM palmitate or oleate. Cells were collected at different time points (0, 30, 60 and 120 minutes). DAG was extracted with other lipids and quantified through a phosphorylation reaction catalyzed by a bacterial DAG kinase.

DKO cells [4] = experiment: Production of reactive oxygen species (dihydroethidium); settings: for ROS production: incubation of log phase cells
Description: Production of reactive oxygen species: ROS were detected by dihydroethidium (Sigma), which was used at 5 μg per ml cell culture. After incubation for 10 minutes, cells were viewed under a Leica DMLB microscope through a Texas Red filter. The free radical spin trap reagent 3,3,5,5,-tetramethyl-pyrroline N-oxide (TMPO) was used at 125 μg per ml cell culture. Cells were pretreated with […] for 2 hours before lipids were added.

wild type cells = experiment: Diacylglycerol kinase assay of cellular DAG level, wild type; settings: after 2-hour incubation with palmitate, from 1
Description: as §5

[5] = tested on: DKO strain (S. pombe Δplh1 Δdga1 double deletion); experiment: Cell viability assay (colony forming) after treatment
Description: as §1, §2

[6] = mutant cells pretreated with TMPO (125 μg/ml) for 2 hours, then 1 mM palmitate for 2 hours
[7] = caspase inhibitor added, data not shown
[8] = DKO strain, early log phase cells, various concentrations of diC8 DAG, 0-3 hours

SMILES: CCCCCCCCCCCCCCC[C@@H](O)[C@@H](N)CO [DHS, dihydrosphingosine]
- DNA fragmentation [1]: no DNA fragmentation was observed
- killing of S. pombe cells [1]: could kill S. pombe cells at high concentrations

SMILES: CCCCCCCCCCCCCCCC(=O)O [palmitate, palmitic acid]
- apoptosis induced by fatty acid [2]: caused the DKO cells to undergo apoptosis
- DAG level (DKO cells [3]; after 2-hour incubation with 0.8 mM palmitate, 1 nmol/mg dry weight before addition): 3.5 nmol/mg dry weight
- ROS production (DKO cells [4]): induced dramatic ROS production
- DAG level (wild type cells): 1.5 nM/mg dry weight

SMILES: CC1(C)C=[N+]([O-])C(C)(C)C1 [TMPO, 3,3,5,5,-tetramethyl-pyrroline N-oxide]
- prevention of cell death [5, 6]: prevent DNA fragmentation (FIG. 24) and cell death
- prevention of DNA fragmentation [2, 6]: prevent DNA fragmentation
- scavenging of ROS (DKO cells [4]; [6]): could effectively scavenge ROS

SMILES: CCCC[C@@H](C)[C@@H](OC(=O)C[C@@H](CC(=O)O)C(=O)O)[C@H](C[C@@H](C)C[C@H](O)CCCC[C@@H](O)C[C@H](O)[C@H](C)N)OC(=O)C[C@@H](CC(=O)O)C(=O)O [fumonisin B1]
- cells undergoing apoptosis in the presence of the inhibitor ([2]; data not shown): more cells underwent apoptosis
- rescue of palmitate-induced apoptosis ([2]; data not shown): no rescue of apoptosis was observed

SMILES: CCCCCCCCCCCCC/C=C/[C@@H](O)[C@H](CO)NC(C)=O [C2-ceramide, N-acetylsphigosine]
- DNA fragmentation [1]: no DNA fragmentation was observed
- killing of S. pombe cells [1]: could kill S. pombe cells at high concentrations

SMILES: CCCCCCCC/C=C\CCCCCCCC(=O)O [oleate, oleic acid]
- apoptosis induced by fatty acid [2]: caused the DKO cells to undergo apoptosis
- DAG level (DKO cells [3]; after 2-hour incubation with oleate, from 1): 2.5 nM/mg dry weight
- ROS production (DKO cells [4]): induced dramatic ROS production

SMILES: CCCCCCCCCCCCCC[C@@H](O)[C@@H](O)[C@@H](N)CO [PHS, phytosphingosine]
- DNA fragmentation [1]: no DNA fragmentation was observed
- killing of S. pombe cells [1]: could kill S. pombe cells at high concentrations

SMILES: COC(=O)C[C@H](NC(=O)[C@H](C)NC(=O)[C@@H](NC(=O)OCc1ccccc1)C(C)C)C(=O)CF [zVADfmk] (Cbz-Val-Ala-Asp(OMe)-CH2F)
- prevention of cell death [5, 7]: failed to prevent cell death
- prevention of DNA fragmentation [2, 7]: failed to prevent cell death and DNA fragmentation

SMILES: CCCCCCCC(=O)OC[C@H](CO)OC(=O)CCCCCCC [diC8 DAG, 1,2-dioctanoyl-sn-glycerol]
- cell death [5, 8]: cell death were observed in the DKO strain
- nuclear DNA fragmentation [2, 8]: prominent nuclear DNA fragmentation
- percentage of cells showing DNA fragmentation, dependence on time and concentration ([2]; DKO strain, up to 3 hours, up to 0.3 mM): generally increases with time (up to 3 hours) and concentration
- ROS production (DKO cells [4]): induced dramatic ROS production

SMILES: CCCCCCC(=O)CCCCCC/C=C/C[C@@H](O)[C@H](O)[C@@](N)(CO)C(=O)O [myriocin]
- cells undergoing apoptosis in the presence of the inhibitor ([2]; data not shown): more cells underwent apoptosis
- rescue of palmitate-induced apoptosis ([2]; data not shown): no rescue of apoptosis was observed
